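96-well plates; 48 h exposure; 5 concentrations. Endpoints by linear interpolation between flanking doses. Not reached: highest tested concentration assigned. Abbreviation: GI50, concentration required for 50% inhibition of growth.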 Calls of active or inactive are those of the source. No stated cut-off is given here; in the data, active = GI50 up to about 1.1 µM and inactive = higher.
What was measured:
Assay in all cases: growth of human tumour cells (NCI), 48 h
M14 = test system: M14
786-0 = test system: 786-0
NCI-H460 = test system: NCI-H460
UACC-62 = test system: UACC-62
UO-31 = test system: UO-31
ACHN = test system: ACHN
HT-29 = test system: HT-29
TK-10 = test system: TK-10
MOLT-4 = test system: MOLT-4
SNB-75 = test system: SNB-75
NCI-H23 = test system: NCI-H23
OVCAR-5 = test system: OVCAR-5
OVCAR-4 = test system: OVCAR-4
UACC-257 = test system: UACC-257
SN12C = test system: SN12C
LOX IMVI = test system: LOX IMVI
SF-268 = test system: SF-268
NCI-H522 = test system: NCI-H522

Structure (SMILES)	GI50 (M14)	GI50 (786-0)	GI50 (NCI-H460)	GI50 (UACC-62)	GI50 (UO-31)	GI50 (ACHN)	GI50 (HT-29)	GI50 (TK-10)	GI50 (MOLT-4)	GI50 (SNB-75)	GI50 (NCI-H23)	GI50 (OVCAR-5)	GI50 (OVCAR-4)	GI50 (UACC-257)	GI50 (SN12C)	GI50 (LOX IMVI)	GI50 (SF-268)	GI50 (NCI-H522)
Cc1[nH]c2ccccc2c1/C=C/c1c(C)[nH]c2ccccc12	> 100 µM (inactive)	> 100 µM (inactive)	> 100 µM (inactive)	> 100 µM (inactive)	> 100 µM (inactive)	> 100 µM (inactive)	> 100 µM (inactive)	> 100 µM (inactive)	> 100 µM (inactive)	31 µM (inactive)	> 100 µM (inactive)	> 100 µM (inactive)	> 100 µM (inactive)	> 100 µM (inactive)				
CCOC(=O)Cn1c(=O)[nH]c(=O)c2[nH]cnc21	> 100 µM (inactive)	> 100 µM (inactive)	> 100 µM (inactive)	> 100 µM (inactive)	> 100 µM (inactive)	> 100 µM (inactive)	> 100 µM (inactive)	> 100 µM (inactive)	> 100 µM (inactive)	> 100 µM (inactive)	> 100 µM (inactive)	> 100 µM (inactive)	> 100 µM (inactive)	> 100 µM (inactive)	> 100 µM (inactive)	> 100 µM (inactive)	> 100 µM (inactive)	> 100 µM (inactive)
COc1cc2c(c(OC)c1OC)CCNC2C1=C(O)COC1=O (stereo not drawn)	> 100 µM (inactive)	> 100 µM (inactive)	92.9 µM (inactive)	55.6 µM (inactive)	> 100 µM (inactive)	> 100 µM (inactive)	> 100 µM (inactive)	> 100 µM (inactive)	> 100 µM (inactive)	> 100 µM (inactive)		> 100 µM (inactive)	> 100 µM (inactive)	> 100 µM (inactive)	> 100 µM (inactive)	> 100 µM (inactive)	> 100 µM (inactive)	> 100 µM (inactive)
Cc1cccc(-c2nc3c(C(=O)NCCN(C)C)cccc3[nH]2)c1	1.63 µM (inactive)	1.59 µM (inactive)	0.369 µM (active)	1.8 µM (inactive)	2.06 µM (inactive)	2.26 µM (inactive)	0.52 µM (active)	1.37 µM (inactive)	0.406 µM (active)	2.2 µM (inactive)	1.06 µM (active)	1.88 µM (inactive)	0.809 µM (active)	1.67 µM (inactive)	0.65 µM (active)	0.708 µM (active)	1.58 µM (inactive)	
CS(=O)(=O)OCCCOS(C)(=O)=O	> 100 µM (inactive)	> 100 µM (inactive)	> 100 µM (inactive)	> 100 µM (inactive)	> 100 µM (inactive)	> 100 µM (inactive)	> 100 µM (inactive)	> 100 µM (inactive)	> 100 µM (inactive)	> 100 µM (inactive)	> 100 µM (inactive)	> 100 µM (inactive)	> 100 µM (inactive)	> 100 µM (inactive)	> 100 µM (inactive)	> 100 µM (inactive)	> 100 µM (inactive)	> 100 µM (inactive)
N#C/C(=C1\OC(=O)C(c2ccc(Br)cc2)=C1O)c1ccc(Br)cc1	14.8 µM (inactive)	14.7 µM (inactive)	15.7 µM (inactive)	11.6 µM (inactive)	15.1 µM (inactive)	15.7 µM (inactive)	17.3 µM (inactive)	22.1 µM (inactive)	17.2 µM (inactive)	17.6 µM (inactive)	12.9 µM (inactive)	19.1 µM (inactive)	16.5 µM (inactive)	15.3 µM (inactive)	11.2 µM (inactive)	15 µM (inactive)	14.7 µM (inactive)	12.4 µM (inactive)
COc1ccc2c(c1)OC[C@@H]1c3cc4c(cc3O[C@H]21)OCO4	> 100 µM (inactive)	> 100 µM (inactive)	> 100 µM (inactive)		> 100 µM (inactive)	> 100 µM (inactive)	> 100 µM (inactive)	> 100 µM (inactive)	> 100 µM (inactive)	11.6 µM (inactive)	> 100 µM (inactive)	> 100 µM (inactive)	35.7 µM (inactive)			> 100 µM (inactive)	75 µM (inactive)	> 100 µM (inactive)
O=Cc1ccc2c(c1I)OCO2	> 100 µM (inactive)	> 100 µM (inactive)	> 100 µM (inactive)	> 100 µM (inactive)	> 100 µM (inactive)	> 100 µM (inactive)	> 100 µM (inactive)	> 100 µM (inactive)	> 100 µM (inactive)	> 100 µM (inactive)	> 100 µM (inactive)	> 100 µM (inactive)	> 100 µM (inactive)	> 100 µM (inactive)	> 100 µM (inactive)	> 100 µM (inactive)		> 100 µM (inactive)
O=c1[nH]c(=O)n(C2OC(CO)C(N(O)Cc3ccc(F)cc3)C2O)cc1Br (stereo not drawn)	> 100 µM (inactive)	> 100 µM (inactive)	> 100 µM (inactive)	> 100 µM (inactive)	> 100 µM (inactive)	> 100 µM (inactive)	> 100 µM (inactive)	> 100 µM (inactive)	> 100 µM (inactive)	> 100 µM (inactive)	> 100 µM (inactive)	> 100 µM (inactive)	> 100 µM (inactive)	> 100 µM (inactive)	> 100 µM (inactive)	> 100 µM (inactive)	> 100 µM (inactive)	13.2 µM (inactive)
Cc1c(NC(=O)C(C)(C)Br)c(=O)oc2c(C)c3occc(=O)c3cc12	48.9 µM (inactive)	53.7 µM (inactive)	58.9 µM (inactive)	67.5 µM (inactive)	21.3 µM (inactive)	45.8 µM (inactive)	90.2 µM (inactive)	> 100 µM (inactive)	37.1 µM (inactive)	35.7 µM (inactive)	81.5 µM (inactive)		49.8 µM (inactive)	> 100 µM (inactive)	52.4 µM (inactive)	76.9 µM (inactive)	64.9 µM (inactive)	
CN1NC(c2ccccc2)=C(C#N)C(=O)CC1c1ccccc1Cl (stereo not drawn)	> 100 µM (inactive)	> 100 µM (inactive)	> 100 µM (inactive)			> 100 µM (inactive)	> 100 µM (inactive)	> 100 µM (inactive)	> 100 µM (inactive)	86.3 µM (inactive)	> 100 µM (inactive)	> 100 µM (inactive)	> 100 µM (inactive)	> 100 µM (inactive)	> 100 µM (inactive)	> 100 µM (inactive)	> 100 µM (inactive)	65.2 µM (inactive)
Cc1ccc2sc3cc(=O)cc(C)c-3nc2c1	> 100 µM (inactive)	55.1 µM (inactive)	> 100 µM (inactive)	14.3 µM (inactive)	26.1 µM (inactive)	29.2 µM (inactive)	> 100 µM (inactive)	> 100 µM (inactive)	15.7 µM (inactive)	> 100 µM (inactive)	45.3 µM (inactive)	> 100 µM (inactive)	14.2 µM (inactive)	74.3 µM (inactive)	60.4 µM (inactive)		47.2 µM (inactive)	20.3 µM (inactive)
c1cnc2c3[nH]cc4[nH]c5ccccc5c4c-3nc2c1	> 100 µM (inactive)	44.4 µM (inactive)	35.6 µM (inactive)	> 100 µM (inactive)	42.4 µM (inactive)	61.4 µM (inactive)	29.8 µM (inactive)	> 100 µM (inactive)	22.7 µM (inactive)	51.9 µM (inactive)	> 100 µM (inactive)	> 100 µM (inactive)	44 µM (inactive)	> 100 µM (inactive)	> 100 µM (inactive)	52.5 µM (inactive)	84.5 µM (inactive)	> 100 µM (inactive)
c1ccc(P(=C2c3ccccc3-c3ccccc32)(c2ccccc2)c2ccccc2)cc1	8.34 µM (inactive)	4.68 µM (inactive)	3.37 µM (inactive)	3.46 µM (inactive)	8.87 µM (inactive)	2.66 µM (inactive)	2.99 µM (inactive)	7.64 µM (inactive)		28.1 µM (inactive)	2.45 µM (inactive)	4.32 µM (inactive)	6.1 µM (inactive)	3.94 µM (inactive)	3.15 µM (inactive)	2.83 µM (inactive)	7.19 µM (inactive)	1.6 µM (inactive)
COc1ccc(-c2cc(C(=O)Nc3cc(C(F)(F)F)cc(C(F)(F)F)c3)c3ccccc3n2)cc1	10.2 µM (inactive)	11.7 µM (inactive)	5.42 µM (inactive)	21.6 µM (inactive)	24.5 µM (inactive)	12.5 µM (inactive)	9.06 µM (inactive)	13.9 µM (inactive)	14.2 µM (inactive)	13.7 µM (inactive)	5.9 µM (inactive)	24.7 µM (inactive)	8.3 µM (inactive)	17.6 µM (inactive)	10.6 µM (inactive)	13.4 µM (inactive)	14.4 µM (inactive)	
Fc1cccc(C2SCc3nc4ccccc4n32)c1 (stereo not drawn)		> 100 µM (inactive)	39.6 µM (inactive)	40.1 µM (inactive)	33.8 µM (inactive)	24.4 µM (inactive)	68.7 µM (inactive)	> 10 µM (inactive)	33.8 µM (inactive)	36.4 µM (inactive)	19.6 µM (inactive)	17.3 µM (inactive)		17.6 µM (inactive)	50.5 µM (inactive)		75.3 µM (inactive)	20.2 µM (inactive)
O=[N+]([O-])c1ccc(-c2noc(-c3ccc(Cl)cc3)c2C2=NCCN2)cc1	> 100 µM (inactive)	> 100 µM (inactive)	> 100 µM (inactive)	> 100 µM (inactive)	> 100 µM (inactive)	> 100 µM (inactive)	> 100 µM (inactive)		> 100 µM (inactive)			> 100 µM (inactive)	> 100 µM (inactive)	> 100 µM (inactive)	> 100 µM (inactive)	> 100 µM (inactive)	> 100 µM (inactive)	> 100 µM (inactive)

From ChEMBL document CHEMBL1201862, “PubChem BioAssay data set” (2004)
